Here are results for six compounds from article PMC12328261, “Modulating Antimicrobial Activity and Structure of the Peptide Esc(1‐21) via Site‐Specific Isopeptide Bond Formation” (Journal of Peptide Science, 2025).

*1 amine or outer side, *2 acyl side, *3 side chain or, on linkers, in order; H or OH if unused. Where a SMILES comes first, the peptide text is derived from it. Bridges are numbered along the chain shown (N, C = ends). Roman numbers before positions name the chains, in order. Where no end group is shown, it is not given here. Side-chain parts run from the residue outwards. [ ]: non-standard residue; d: D form. εLys = N[C@@H](CCCCN[*:1])C(=O)[*:2]

One data set concerns E. coli ATCC 25922. It is filed as cell-based, Escherichia coli. As to the method:
(§1) The antimicrobial activity of Esc(1‐21) analogs was assessed by determining the minimal inhibitory concentration (MIC) against a panel of representative Gram‐negative and Gram‐positive bacteria. […] The bacteria were then diluted in Mueller‐Hinton (MH) broth at a concentration of 2 × 10^6 colony‐forming units (CFU)/mL. Aliquots (50 μL) were added to 50 μL of MH containing serial two‐fold dilutions of the peptides, which had been previously prepared in the wells of a 96‐well plate, achieving a final cell concentration of 10^6 CFU/mL. […] To evaluate the antibiofilm activity of the tested peptides, bacteria were diluted to a cell density of 10^6 CFU/mL and aliquots of 100 μL were dispensed into the wells of a 96‐multiwell plate and incubated for 20 h at 37°C to allow biofilm formation. Planktonic cells were then removed, and each well was washed twice with 150 μL of phosphate buffered saline (PBS). Each well was filled with PBS supplemented with different 2‐fold serial dilutions of the tested peptides and the plate was incubated for 2 h at 37°C. After two washes with PBS, biofilm viability was assessed by adding 150 μL of MTT (0.5 mg/mL). The plate was incubated for 4 h at 37°C and the reaction was then stopped by adding SDS (final concentration equal to 5% v/v). The absorbance of each well was measured at 570 nm with a microplate reader (Infinite M200; Tecan, Salzburg, Austria), and the percentage of biofilm viability was calculated with respect to the untreated samples.

A further data set concerns P. aeruginosa ATCC 15692. It is filed as cell-based, Pseudomonas aeruginosa. How it is done:
as §1

For the next data set, the system named is P. aeruginosa ATCC 27853. The format is cell-based, Pseudomonas aeruginosa. How it is done:
as §1

The test system of data set [1] is S. epidermidis ATCC 12228. The format is cell-based, Staphylococcus epidermidis. As to the method: as §1
The test system of a further data set is S. aureus ATCC 25923. It is filed as cell-based, Staphylococcus aureus. As to the method: as §1
For another data set, the system named is RBCs. Also noted: method as in PMID 32722535. Particulars: 64 µM; cited from earlier work.

As for `CC[C@H](C)[C@H](NC(=O)CN)C(=O)N[C@@H](Cc1ccccc1)C(=O)N[C@@H](CO)C(=O)NCCCC[C@H](N)C(=O)N[C@@H](CC(C)C)C(=O)N[C@@H](C)C(=O)NCC(=O)N[C@@H](CCCCN)C(=O)N[C@@H](CCCCN)C(=O)N[C@H](C(=O)N[C@@H](CCCCN)C(=O)N[C@@H](CC(N)=O)C(=O)N[C@@H](CC(C)C)C(=O)N[C@@H](CC(C)C)C(=O)N[C@H](C(=O)N[C@@H](CO)C(=O)NCC(=O)N[C@@H](CC(C)C)C(=O)N[C@@H](CCCCN)C(=O)NCC(N)=O)[C@@H](C)CC)[C@@H](C)CC` [Esc(1‐21)ε5] (H-K([Ser-Phe-Ile-Gly])LAGKKIKNLLISGLKG-NH2), the “Antimicrobial activity (MIC)” value was 3.12 µM in the data set on E. coli ATCC 25922; 6.25 µM in the data set on P. aeruginosa ATCC 15692; 12.5 µM with P. aeruginosa ATCC 27853; 25 µM in data set [1]; > 50 µM in the data set on S. aureus ATCC 25923.

As to `CC[C@H](C)[C@H](NC(=O)CN)C(=O)N[C@@H](Cc1ccccc1)C(=O)N[C@@H](CO)C(=O)N[C@@H](CCCCN)C(=O)N[C@@H](CC(C)C)C(=O)N[C@@H](C)C(=O)NCC(=O)NCCCC[C@H](N)C(=O)N[C@@H](CCCCN)C(=O)N[C@H](C(=O)N[C@@H](CCCCN)C(=O)N[C@@H](CC(N)=O)C(=O)N[C@@H](CC(C)C)C(=O)N[C@@H](CC(C)C)C(=O)N[C@H](C(=O)N[C@@H](CO)C(=O)NCC(=O)N[C@@H](CC(C)C)C(=O)N[C@@H](CCCCN)C(=O)NCC(N)=O)[C@@H](C)CC)[C@@H](C)CC` [Esc(1‐21)ε9] (I: H-KKIKNLLISGLKG-NH2 / II: H-GIFSKLAG; amide I:1-II:C), the “Antimicrobial activity (MIC)” value in the data set on E. coli ATCC 25922 is 3.12 µM; in the data set with P. aeruginosa ATCC 15692, 6.25 µM; with P. aeruginosa ATCC 27853 it was 6.25 µM; in data set [1] it was 12.5 µM; with S. aureus ATCC 25923 it was > 50 µM.

Turning to `CC[C@H](C)[C@H](NC(=O)CN)C(=O)N[C@@H](Cc1ccccc1)C(=O)N[C@@H](CO)C(=O)N[C@@H](CCCCN)C(=O)N[C@@H](CC(C)C)C(=O)N[C@@H](C)C(=O)NCC(=O)N[C@@H](CCCCN)C(=O)NCCCC[C@H](N)C(=O)N[C@H](C(=O)N[C@@H](CCCCN)C(=O)N[C@@H](CC(N)=O)C(=O)N[C@@H](CC(C)C)C(=O)N[C@@H](CC(C)C)C(=O)N[C@H](C(=O)N[C@@H](CO)C(=O)NCC(=O)N[C@@H](CC(C)C)C(=O)N[C@@H](CCCCN)C(=O)NCC(N)=O)[C@@H](C)CC)[C@@H](C)CC` [Esc(1‐21)ε10] (I: H-KIKNLLISGLKG-NH2 / II: H-GIFSKLAGK; amide I:1-II:C), the “Antimicrobial activity (MIC)” value was 6.25 µM in the data set on E. coli ATCC 25922; 6.25 µM with P. aeruginosa ATCC 15692; 12.5 µM in the data set on P. aeruginosa ATCC 27853; 25 µM in data set [1]; > 50 µM in the data set on S. aureus ATCC 25923.

On to `CC[C@H](C)[C@H](NC(=O)CN)C(=O)N[C@@H](Cc1ccccc1)C(=O)N[C@@H](CO)C(=O)N[C@@H](CCCCN)C(=O)N[C@@H](CC(C)C)C(=O)N[C@@H](C)C(=O)NCC(=O)N[C@@H](CCCCN)C(=O)N[C@@H](CCCCN)C(=O)N[C@H](C(=O)NCCCC[C@H](N)C(=O)N[C@@H](CC(N)=O)C(=O)N[C@@H](CC(C)C)C(=O)N[C@@H](CC(C)C)C(=O)N[C@H](C(=O)N[C@@H](CO)C(=O)NCC(=O)N[C@@H](CC(C)C)C(=O)N[C@@H](CCCCN)C(=O)NCC(N)=O)[C@@H](C)CC)[C@@H](C)CC` [Esc(1‐21)ε12] (H-GIFSKLAGKKI[εLys]NLLISGLKG-NH2), for which the “Antimicrobial activity (MIC)” value in the data set with E. coli ATCC 25922 is 25 µM; in the data set on P. aeruginosa ATCC 15692, 25 µM; in the data set with P. aeruginosa ATCC 27853 it was 25 µM; in data set [1] it was > 50 µM; in the data set on S. aureus ATCC 25923, > 50 µM.

Turning to `CC[C@H](C)[C@H](NC(=O)CN)C(=O)N[C@@H](Cc1ccccc1)C(=O)N[C@@H](CO)C(=O)N[C@@H](CCCCN)C(=O)N[C@@H](CC(C)C)C(=O)N[C@@H](C)C(=O)NCC(=O)N[C@@H](CCCCN)C(=O)N[C@@H](CCCCN)C(=O)N[C@H](C(=O)N[C@@H](CCCCN)C(=O)N[C@@H](CC(N)=O)C(=O)N[C@@H](CC(C)C)C(=O)N[C@@H](CC(C)C)C(=O)N[C@H](C(=O)N[C@@H](CO)C(=O)NCC(=O)N[C@@H](CC(C)C)C(=O)NCCCC[C@H](N)C(=O)NCC(N)=O)[C@@H](C)CC)[C@@H](C)CC` [Esc(1‐21)ε20] (H-GIFSKLAGKKIKNLLISGL[εLys]G-NH2), the “Antimicrobial activity (MIC)” value in the data set with E. coli ATCC 25922 is 1.56 µM; in the data set on P. aeruginosa ATCC 15692, 1.56 µM; in the data set with P. aeruginosa ATCC 27853, 1.56 µM; in data set [1], 3.12 µM; in the data set with S. aureus ATCC 25923, > 50 µM.

As for “GIFSKLAGKKIKNLLISGLKG-NH2 [Esc(1‐21), Esculentin‐1a(1‐21)NH2]”, the Hemolysis with RBCs is on record as 10-15%.
